Measured values as given in patent publication US11464227B2, “Enhanced microbial and biorational control of nematode pests of plants” (ADVANCED BIOLOGICAL MARKETING, INC., priority 2017, dated 2022).

System: plant
Assay: Plant growth and disease resistance induction by Trichoderma metabolite
Format: in vivo
Conditions: at very low concentrations
From the text: These endophytic microorganisms frequently are fully symbiotic with plants (Harman, Howell, et al., 2004). These endophytic symbionts have abilities to induce multiple beneficial effects in plants, including induced resistance to diseases and potentially other pests; resistance to abiotic stresses such as drought, salt and flooding; improved efficiency of uses of nitrogen and other plant nutrients; enhancement of seed germination and seedling vigor; and enhanced plant growth and development. There are numerous diverse genera of microbes that induce at least most of these changes in plant performance, including mycorrhizae, plant growth promoting rhizobacteria, and Basidomycetous fungi in the Sebaciles such as Piriformaspora indica. These organisms have an endophytic versus a plant pathogenic life style (Shoresh, Mastouri, et al., 2010) typical of numerous other plant-associated microorganisms. The systemic changes in plant gene expression are presumed to be induced by the production of specific triggering metabolites from these different organisms. […] (Cawoy, Mariutto, et al., 2014, Debois, Fernandez, et al., 2015), and hydrophobic proteins (Djonovic, Vargas, et al., 2007, Ruoccco, Lanzuise, et al., 2015) and volatile and nonvolatile metabolites from Trichoderma […], et al., 2008).

With `C=CC(O)CCCCC` (centres unmarked) [1-octene-3-ol] the “induction of plant disease resistance” value was “highly effective” and the plant growth was “strongly enhances”.
